Assay results reported in patent US6417182B1, “Pharmaceutical compositions comprising metal complexes” (AnorMED Inc., priority 1993, dated 2002).

Key:
[1] = system: murine (RAW264) macrophage cell lines; assay: in vitro cell culture test: available nitric oxide (nitrite+nitrate, Griess) in activated macrophages; assay type: cell-based; conditions: up to 100 μM
Description: In the in vitro cell culture tests, murine (RAW264) macrophage cell lines, which can be induced to produce nitric oxide, were seeded, 10^6 cells/well, onto 24 well culture plates of 2 ml volume per well, in Eagles modified minimal essential medium (MEM) plus 10% foetal bovine serum without phenol red.
The cells were activated to produce nitric oxide, with 10 μg/ml lipopolysaccharide and 100 units/ml interferon γ for 18 hours. Concurrently, test compounds made up in MEM were added at non-cytotoxic concentrations. […]
Background nitric oxide was assessed by measurement of nitrate and nitrite in cells which were not activated. […]
Nitric oxide was determined by measurement of nitrate and nitrite in the cell supernatant These anions are the stable end-products of reactions of NO in solution. […] Nitrite was determined using the Griess reaction in which nitrite reacts with 1% sulphanilamide in 5% H3PO4/0.1% naphthylethylenediamine dihydrochloride to form a chromophore absorbing at 540 nm Nitrate was determined by reducing nitrate to nitrite with a bacterial nitrate reductase from Pseudomonas oleovorans and then measuring nitrite with the Griess reaction. […] The effect of test compounds on available nitric oxide (measured as nitrite+nitrate) was determined. […]

rat tail artery = assay: ex vivo rat tail artery perfusion test (vasoconstriction by removal of endogenous NO); design: species or system Wistar rats; conditions: for vasoconstriction on application of test compound (in words): 10 μM and 100 μM (Example 26 also 1000 μM); for reversibility of vasoconstriction: washout with Krebs solution
From the text: In the ex vivo tests, segments of rat tail artery (0.8-1.5 cm) were dissected free from normotensive adult Wistar rats. The arteries were internally perfused with Krebs solution (mM: NaCl 118, KCl 4.7, NaHCO3, 25, NaH2PO4 1.15, CaCl2 2.5, MgCl2 1.1, glucose 5.6 and gassed with 95% O2/5% CO2 to maintain a pH of 7.4) in a constant flow perfusion apparatus. A differential pressure transducer located upstream of the vessel detected changes in back pressure. The rat tail artery preparation was pre-contracted with 6.5 μM phenylephrine to give a physiologically normal pressure of 100-120 mm Hg. The pre-contracted vessels were then perfused with the test compound. The arteries were perfused with Krebs solution between applications of test compound to wash out the test compound.
Pressure changes in the system served to indicate artery vasoconstriction. The vasoconstriction is a direct result of the removal of endogenous nitric oxide (edrf) from the endothelial cells of the rat tail artery.

[2] = in vitro NO uptake test (manometric pressure decrease; IR spectrum of freeze-dried product); conditions: aqueous solution under argon, 20-24° C., NO gas in headspace, pressure recorded over one hour
Description: The resulting solution was placed in a three-necked pear-shaped flask and stirred by a magnetic stirrer at constant speed of 1000 rpm, at a constant temperature in the range 20° C.-24° C. A manometer was attached to the flask, and purified, dried nitric oxide gas (known volume in the range 3-5 cm^3) was introduced via a septum, using a gas syringe, at atmospheric pressure into the headspace above the reaction solution. The pressure within the flask was recorded periodically over a period of one hour.
A control experiment was carried out according to the above but without any complex present.
On completion of each in vitro test, the reaction solution was freeze-dried. An infrared spectrum of the freeze-dried product provided information on metal-NO bond formation.

Row | Compound | dose dependence of reduction of available nitric oxide [1] | vasoconstriction on application of test compound (in words) (rat tail artery) | % Vasoconstriction (rat tail artery; 10 μM, artery pre-contracted with 6.5 μM phenylephrine) | reversibility of vasoconstriction (rat tail artery) | pressure decrease indicating binding of NO to the metal compound [2]
1 | O.O.O=C([O-])CN(CCN(CC(=O)[O-])CC(=O)O)CC(=O)[O-].[Cl-].[K+].[Ru+3] [Example 1, K[Ru(Hedta)Cl]2H2O] | reduced in a dose-dependent fashion | – | – | – | –
2 | [Ru(NH3)5Cl]Cl2 [Example 15] | – | dose-dependent vasoconstriction | 16% | reversible by washout with Krebs solution | –
3 | O.O=C([O-])CN(CC(=O)[O-])CC(=O)O.O=C([O-])CN(CC(=O)[O-])CC(=O)O.O=C([O-])CN(CC(=O)[O-])CC(=O)O.O=C([O-])CN(CC(=O)[O-])CC(=O)O.[K+].[K+].[Ru+3].[Ru+3] [Example 7, K[Ru(Hnta)2]½H2O] | – | – | – | – | pressure decrease indicated binding of NO
4 | O.O=C([O-])CN(CCO)CCN(CC(=O)[O-])CC(=O)[O-].[Cl-].[K+].[Ru+3] [Example 3, K[Ru(hedtra)Cl]H2O] | – | dose-dependent vasoconstriction | – | reversible by washout with Krebs solution | –
5 | Cc1occc(=O)c1[O-].Cc1occc(=O)c1[O-].Cc1occc(=O)c1[O-].[Ru+3] [Example 26, [Ru(maltol)3]] | – | dose-dependent vasoconstriction | – | reversible by washout with Krebs solution | –
6 | CC(=O)C=C(C)[O-].O=C([O-])CN(CCN(CC(=O)[O-])CC(=O)O)CC(=O)O.[Ru+3] [Example 2, [Ru(H2edta)(acac)]] | – | dose-dependent vasoconstriction | – | reversible by washout with Krebs solution | –
7 | CC(=O)[O-].CC(=O)[O-].CC(=O)[O-].CC(=O)[O-].[Cl-].[Ru+3].[Ru+3] [Example 14, [Ru2(OAc)4]Cl] | – | dose-dependent vasoconstriction | – | reversible by washout with Krebs solution | –
8 | O.O=C([O-])CN(CCN(CC(=O)[O-])CC(=O)O)CCN(CC(=O)[O-])CC(=O)O.[Cl-].[K+].[Ru+3] [Example 8, K[Ru(H2dtpa)Cl]H2O] | – | – | – | – | pressure decrease indicated binding of NO
